The values that follow are results of earlier work, collected in article PMC6470953, “Symmetrical Modification of Minimized Dermaseptins to Extend the Spectrum of Antimicrobials with Endotoxin Neutralization Potency” (International Journal of Molecular Sciences, 2019).

The subject of one data set is S. pullorum C79-13. Particulars: cited from earlier work. From the text: (§1) Table 2 MICs and therapeutic index of the peptides. | column: KL4A6 [9]
Another data set relates to S. faecalis ATCC 29212. The conditions noted are these: cited from earlier work.
Excerpt: as §1

The next data set relates to B. subtilis CMCC 63501. Particulars: cited from earlier work.
Excerpt: as §1

The subject of another data set is E. coli ATCC25922. Particulars: cited from earlier work.
Excerpt: as §1

Data set [1] relates to S. typhimurium ATCC 14028. The conditions noted are these: cited from earlier work.
Excerpt: as §1

Another data set has as its system S. aureus ATCC 29213. The conditions noted are these: cited from earlier work.
Excerpt: as §1

For the next data set, the system named is P. aeruginosa ATCC 27853. Particulars: cited from earlier work.
Excerpt: as §1

For another data set, the system named is E. coli UB1005. The conditions noted are these: cited from earlier work.
Excerpt: as §1

In data set [2] the test system is S. epidermidis ATCC 12228. Particulars: cited from earlier work.
Excerpt: as §1

Data set [3] concerns Gram-negative and Gram-positive bacteria. The conditions noted are these: MIC >128 μM counted as 256 μM; cited from earlier work.
Excerpt: as §1

The subject of data set [4] is human red blood cells (hRBCs). The conditions noted are these: lowest peptide concentration that induces 5% hemolysis; cited from earlier work.
Excerpt: as §1

Some results are limits rather than exact numbers.

As for LLKAAAKAAAKLL-NH2 [KL4A6], the MIC was above 128 µM in the data set on S. pullorum C79-13; 16 µM with S. faecalis ATCC 29212; 32 µM in the data set on B. subtilis CMCC 63501; 2 µM in the data set with E. coli ATCC25922; 128 µM in data set [1]; above 128 µM in the data set with S. aureus ATCC 29213. In addition, the MIC in the data set with P. aeruginosa ATCC 27853 was above 128 µM; in the data set on E. coli UB1005, 32 µM; in [2], 128 µM. Also, the “GM (geometric mean of MIC values)” value in [3] is 59.3 µM. For the same substance, the “MHC5 (minimum hemolysis concentration 5%)” value in [4] was above 256 µM.

One may read the MIC as the smallest concentration in the dilution series that meets the test's criterion for growth inhibition.
